Experimental findings from publication PMC3187749, “Discovery of Diverse Small Molecule Chemotypes with Cell-Based PKD1 Inhibitory Activity” (PLoS ONE, 2011) are described below.

Holding throughout (type): biochemical
One test deals with T1, PKD3 (Homo sapiens, UniProt O94806).
T1 sequence (O94806 1-890): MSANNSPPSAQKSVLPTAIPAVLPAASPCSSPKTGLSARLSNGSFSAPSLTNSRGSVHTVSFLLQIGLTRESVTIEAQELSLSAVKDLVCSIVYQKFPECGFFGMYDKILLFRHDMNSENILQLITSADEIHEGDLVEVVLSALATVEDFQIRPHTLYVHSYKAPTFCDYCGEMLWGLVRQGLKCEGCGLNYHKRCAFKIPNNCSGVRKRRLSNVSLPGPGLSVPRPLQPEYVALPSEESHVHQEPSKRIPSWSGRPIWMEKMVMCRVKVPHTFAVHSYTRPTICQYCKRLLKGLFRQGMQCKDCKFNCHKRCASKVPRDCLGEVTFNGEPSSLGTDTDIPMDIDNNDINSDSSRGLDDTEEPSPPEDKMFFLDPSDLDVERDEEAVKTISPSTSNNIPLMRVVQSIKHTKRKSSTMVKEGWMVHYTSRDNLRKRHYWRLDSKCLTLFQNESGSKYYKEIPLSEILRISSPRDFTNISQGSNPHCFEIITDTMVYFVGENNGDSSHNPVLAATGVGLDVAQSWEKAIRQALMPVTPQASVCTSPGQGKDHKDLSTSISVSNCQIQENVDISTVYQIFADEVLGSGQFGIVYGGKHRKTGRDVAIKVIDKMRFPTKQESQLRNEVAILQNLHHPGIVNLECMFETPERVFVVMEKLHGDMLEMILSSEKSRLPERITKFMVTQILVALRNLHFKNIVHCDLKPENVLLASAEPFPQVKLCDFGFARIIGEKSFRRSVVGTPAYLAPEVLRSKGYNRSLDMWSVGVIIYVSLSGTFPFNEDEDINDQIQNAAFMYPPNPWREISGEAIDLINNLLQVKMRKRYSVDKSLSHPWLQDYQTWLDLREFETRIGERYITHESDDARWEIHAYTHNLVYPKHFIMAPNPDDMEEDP
The test is described as follows: Radiometric PKD3 in vitro kinase assay. The conditions noted are these: preliminary in vitro data. The method, then: Kinase reactions were initiated with the addition of ATP (50 µM ATP, 1.0 µCi γ-^33P-ATP; Perkin Elmer, Boston, MA) and incubated for 20 min at 30°C. Twenty-five µL of the reaction was spotted onto Whatman P81 filter paper (Whatman Inc., Clifton, NJ). Filter papers were then washed three times in 0.5% phosphoric acid, air-dried, and counted using an LS6500 multi-purpose scintillation counter (Beckman Coulter, Fullerton, CA). IC50 determinations were performed using GraphPad Prism software 5.0. Radiometric PKD2 and PKD3 in vitro kinase assays were performed as previously described.

The subject of another test is PLK1. Kind of test: IMAP-based PLK1 counter screen. The conditions noted are these: concentrations up to 50 µM. The source says:
It was also gratifying that, in general, our novel cell active PKD1 inhibitors appeared to be less promiscuous than PKD1 inhibitors having minimal to no cellular PKD1 inhibitory activity (Table 1). For example, CIDs 755673 and 1893668 display additional confirmed activity in six and seven, respectively, PubChem bioassays while CID 2011756 has confirmed activity in only one additional PubChem bioassay. […] In contrast, the remaining chemotypes registered as confirmed actives in 2–43 additional bioassays (Table 1). Additional chemical similarity searching, focusing on our four novel cell-active PKD1 inhibitory chemotypes, using MetaDrug also supports a comparative lack of promiscuity of these compounds.
On the technique in general: The purpose of a counterscreen is to sort out artefacts and off-target activity.

The next test concerns the target T2, recombinant human PKD1 (Homo sapiens, UniProt Q15139).
T2 construct: His; purchased Millipore (Billerica, MA)
T2 sequence (Q15139 1-912): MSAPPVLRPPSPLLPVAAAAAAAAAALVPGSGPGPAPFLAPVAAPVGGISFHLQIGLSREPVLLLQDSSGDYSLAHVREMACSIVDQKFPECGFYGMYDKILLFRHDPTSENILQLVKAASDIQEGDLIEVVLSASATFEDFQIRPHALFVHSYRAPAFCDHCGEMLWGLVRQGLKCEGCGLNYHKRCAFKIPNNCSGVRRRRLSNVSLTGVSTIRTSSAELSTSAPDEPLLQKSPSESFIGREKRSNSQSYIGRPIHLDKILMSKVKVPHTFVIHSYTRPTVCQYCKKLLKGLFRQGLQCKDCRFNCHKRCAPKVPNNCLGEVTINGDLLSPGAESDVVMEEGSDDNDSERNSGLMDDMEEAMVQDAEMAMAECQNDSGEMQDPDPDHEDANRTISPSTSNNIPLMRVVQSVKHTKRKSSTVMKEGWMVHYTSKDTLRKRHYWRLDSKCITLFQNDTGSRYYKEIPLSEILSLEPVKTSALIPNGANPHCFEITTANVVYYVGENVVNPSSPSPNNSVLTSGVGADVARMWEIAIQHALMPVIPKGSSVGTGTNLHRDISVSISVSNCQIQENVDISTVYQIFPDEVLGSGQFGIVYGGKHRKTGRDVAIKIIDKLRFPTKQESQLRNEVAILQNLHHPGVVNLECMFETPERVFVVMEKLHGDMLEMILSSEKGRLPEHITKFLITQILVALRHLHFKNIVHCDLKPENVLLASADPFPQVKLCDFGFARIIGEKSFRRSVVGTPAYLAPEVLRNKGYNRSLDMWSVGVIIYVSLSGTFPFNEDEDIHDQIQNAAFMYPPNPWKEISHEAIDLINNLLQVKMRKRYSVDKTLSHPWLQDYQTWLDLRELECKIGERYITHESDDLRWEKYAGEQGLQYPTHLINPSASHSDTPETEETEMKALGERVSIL
The test is described as follows: ATP competition studies (radiometric PKD1 assay, Michaelis-Menten/Lineweaver-Burk). The conditions noted are these: PKD1, ATP 12.5–1000 µM. The method, then:
For ATP competition studies, recombinant human PKD1 (1 ng/µL) and Syntide-2 substrate peptide (200 ng/µl) in kinase buffer were incubated with a concentration range of test compound. Kinase reactions were initiated with a concentration range of cold ATP (12.5–1000 µM) supplemented with 1.0 µCi γ-^33P-ATP (Perkin Elmer) and processed as described above. Enzyme inhibition was analyzed and visualized using the Michaelis-Menten and Lineweaver-Burk functions of GraphPad Prism 5.0.

Take `O=C(Nc1ccc(CN2CCOCC2)cc1)c1ccc(-c2cccc(Cl)c2)o1` [CID 2011756, 5-(3-chlorophenyl)-N-[4-(morpholin-4-ylmethyl)phenyl]furan-2-carboxamide]: the IC50 against PKD3 is 700 ± 200 nM. The PLK1 kinase inhibition result in the test with PLK1 is recorded as “no kinase inhibition”. On recombinant human PKD1, the “Mechanism of Action (with respect to ATP)” value is on record as “ATP competitive”.

By IC50 is commonly meant the concentration that inhibits the measured activity by half. Low values mean greater potency in that assay, high ones weaker potency in that assay.
